Tested on: endogenous calnexin S-acylation in HEK293T cells
Assay: mPEG-click S-acylation of endogenous calnexin in HEK293T cells
Assay type: cell-based, human
Details: 25 and 50 μM, 4 h pretreatment + 4 h labeling
Description: Finally, we tested whether TTZ-1 and TTZ-2 were able to block the S-acylation of endogenous proteins in the absence of zDHHC enzyme overexpression. In order to detect the S-acylation of endogenous proteins, we used mPEG-click, a technique that we developed recently ([49]) that is better suited for the click chemistry–based analysis of S-acylation of endogenously expressed proteins. In this assay, cells are labeled with either palmitate (C16:0), or C16:0-azide, lysed, and then subjected to click chemistry with alkyne-mPEG 5K. The addition of mPEG 5K moieties to S-acylated proteins increases their apparent molecular weight, which can be detected directly by immunoblotting. HEK293T cells were pretreated for 4 h with either TTZ-1 or TTZ-2 at 25 and 50 μM and then labeled with fatty acids for another 4 h in the presence of the compounds. We first assessed the S-acylation of endogenous SNAP23 as it is a close relative of SNAP25 (SNAP25 is not expressed in the non-neuronal HEK293T cell line) ([50], [51]). […]
Figure 10 Activity of TTZ-1 and TTZ-2 against the S-acylation of endogenous proteins in mammalian cells. […] The data were quantified, and the graphs below each set of membranes show mean ± SEM of normalized S-acylation of either endogenous SNAP23 (A) or endogenous calnexin (B). […]

SMILES	S-acylation of endogenous calnexin
CCCCCCCOc1ccc(C(=O)Nc2cccc3c2OC(c2nnn[nH]2)CN3)cc1 (centres unmarked) [TTZ-1, N-(2-(1H-Tetrazol-5-yl)-3,4-dihydro-2H-benzo[b][1,4]oxazin-8-yl)-4-(heptyloxy)benzamide]	decreased
O=C(Nc1cccc2c1OC(c1nnn[nH]1)CN2)c1ccc(OCCCCc2ccccc2)cc1 (centres unmarked) [TTZ-2, N-(2-(1H-Tetrazol-5-yl)-3,4-dihydro-2H-benzo[b][1,4]oxazin-8-yl)-4-(4-phenylbutoxy)benzamide]	decreased
